Experimental data as given in PubChem BioAssay (NCI).
Values joined by “and” are separate entries in the source; they are usually repeats but may differ in a detail not shown here. Identical values can stand only once.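 Briefly, cells in 96-well plates were exposed to five compound concentrations for 48 h, and endpoints were estimated by linear interpolation. GI50 = concentration required for 50% inhibition of growth. TGI: concentration producing complete growth inhibition.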

The compounds below were run on SNB-75 CNS (assay: NCI-60 cell line screen, 48 h).
With COC(=O)c1ccccc1NC(=O)C(=O)Cc1nc2c3c(ccc2[nH]c1=O)C(=O)c1ccccc1C3=O the TGI was > 100 µM. For Cc1ccc(S(=O)(=O)OC[C@@H]2CO2)cc1, the TGI was > 100 µM. COc1cc2cc(OC)c3cc4c(cc3c2c(OC)c1OC)OCO4 was tested, and the TGI was > 46.1 µM. C=CCO[C@H]1CO[C@H]2[C@@H]1OC[C@@H]2Oc1ccc(Nc2ccnc(Nc3ccc(O[C@H]4CO[C@H]5[C@@H]4OC[C@@H]5OCC=C)c(Cl)c3)n2)cc1Cl was tested, and the GI50 was 1.86 µM and the TGI was 3.31 µM. For CCCCCCCCCCCCCC(=O)OC(/C=C/C(C)C)C(O)C(O)C(OC)C(=O)NC1CCCCN(C)C1=O (configuration not stated), the TGI was 8.6 µM and > 49 µM. In the case of CC1(C(=O)O)CCC[C@@]2(C)C1CC[C@@]1(C)c3cocc3CCC21 (some centres not stated), the TGI is reported as > 100 µM. With CCn1c(C)nn2c(=O)c3ccccc3nc2c1=O the TGI was > 100 µM. CCOC(=O)CCC1(C(=O)OCC)CCCCC1=O (configuration not stated) was tested, and the TGI was > 100 µM. CCN(CC)CCSc1c2ccccc2nc2cc(NCC(=O)Nc3ccccc3-c3ccccc3NC(=O)CNc3ccc4c(SCCN(CC)CC)c5ccccc5nc4c3)ccc12 was tested, and the TGI was > 100 µM. In the case of Cc1nc2c(ccc3ncccc32)[nH]1, the TGI is reported as > 100 µM. Work on O=C(CCNC12CC3CC(CC(C3)C1)C2)c1ccccc1 yielded a TGI of 65.3 µM. Cc1cc(N(CCC#N)CCC#N)ccc1N=Nc1ccc(S(N)(=O)=O)cc1 was tested, and the TGI was > 100 µM. In the case of CC(=O)[CH-]C(=O)c1ccccc1.CC(=O)[CH-]C(=O)c1ccccc1.CN(C)c1ccc([O-])cc1.CN(C)c1ccc([O-])cc1.Cl.[Ti+4], the GI50 is reported as > 31.6 µM and the TGI is reported as > 31.6 µM. For NC(=O)NO.O.O.O.O.O.O.O.O.O.O.O.[Ge].[Ge].[Ge].[Ge].[Ge].[O]=[Ge].[O]=[Ge].[O]=[Ge].[O]=[Ge].[O]=[Ge][OH], the TGI was > 100 µM. In the case of CN(C)C(=S)N=C(Nc1ccccc1)Nc1ccccc1, the TGI is reported as > 100 µM. With CCC[CH2][Sn]([CH2]CCC)([S]c1cccc2cccnc12)[S]c1cccc2cccnc12 the GI50 was 0.234 µM and the TGI was 0.926 µM. With OCC1=CC(NC2CC(CO)C(O)C(O)C2O)C(O)C(O)C1O (configuration not stated) the TGI was > 100 µM. Nc1ccccc1S(=O)(=O)N(CC(=O)O)c1ccccc1 was tested, and the TGI was > 100 µM. In the case of CCOC(=O)C(C)(C)Oc1ccc2c(-c3ccccc3)cc(=O)oc2c1, the TGI is reported as 56.5 µM. In the case of CNS(=O)(=O)NNS(=O)(=O)c1ccccc1, the TGI is reported as > 100 µM. With Cc1cc(NS(=O)(=O)c2ccc(Nc3c4ccccc4nc4c(C(=O)N5CCN(CCOS(C)(=O)=O)CC5)cccc34)cc2)no1 the TGI was > 100 µM. In the case of O=C(O)CCC(NC(=O)c1ccc(Nc2nc3ccccc3nc2-c2cccs2)cc1)C(=O)O (configuration not stated), the TGI is reported as > 100 µM. For NC1=NCCC1(c1ccccc1)c1ccccn1 (configuration not stated), the TGI was > 100 µM. In the case of CC1CCc2nc[nH]c(=O)c21 (configuration not stated), the GI50 is reported as > 100 µM and the TGI is reported as > 100 µM. CNC(=S)OCCC(C)CCCC(C)C (configuration not stated) was tested, and the TGI was 40.6 µM. With COC(=O)/C(C#N)=C1\NC(=O)c2ccccc21 the TGI was 76.9 µM.

What follows are compounds tested on TK-10 renal (assay: NCI-60 cell line screen, 48 h).
In the case of COc1cc2c(c3oc4c(O)cccc4c(=O)c13)CC(C(C)(O)CO)O2 (configuration not stated), the TGI is reported as > 100 µM. In the case of CC(=O)OC1OC([C@@H]2c3cccc(O)c3C(=O)c3c(O)cc(C)cc32)C(O)C(O)C1O (some centres not stated), the GI50 is reported as 0.0286 µM and the TGI is reported as 0.26 µM. With Cc1c(C(=O)C/C(=N/NC(=O)c2ccccc2O)C(=O)Nc2ccccc2C(C)C)[n+](=O)c2ccccc2n1[O-] the TGI was > 100 µM. For CCCCCCCCCCCC(=O)OCCOCCOCCOCCOCCOCc1ccccc1, the TGI was > 100 µM. In the case of CCCC1C(=O)CCc2c(OC)ccc(OC)c21 (configuration not stated), the TGI is reported as > 100 µM. In the case of O=C(CCc1nc(=S)[nH][nH]1)Nc1cc(Cl)c(Cl)cc1Cl, the TGI is reported as > 100 µM. Work on CN1CCCCC1CCN1c2ccccc2Sc2ccc(Cl)cc21 (configuration not stated) yielded a GI50 of 2.27 µM and a TGI of 7.09 µM. For O=C(Nc1nc2ccc([N+](=O)[O-])cc2s1)C(=O)C(C1OC(=O)c2ccccc21)[N+](=O)[O-] (configuration not stated), the TGI was > 100 µM. O=C(CCc1nc(=S)[nH][nH]1)Nc1ccc(Cl)c(Cl)c1 was tested, and the TGI was > 100 µM. In the case of COC(=O)C1(C(C)C)CCc2c(OC)ccc(OC)c2C1=O (configuration not stated), the TGI is reported as > 100 µM. In the case of FC(F)(F)c1cccc(Nc2nc(-c3ccccc3)nc3ncccc23)c1, the GI50 is reported as 2.61 µM and the TGI is reported as 10.5 µM. In the case of COC(=O)c1ccccc1NC(=O)C(=O)Cc1nc2c3c(ccc2[nH]c1=O)C(=O)c1ccccc1C3=O, the TGI is reported as 96.4 µM. With Cc1ccc(S(=O)(=O)OC[C@@H]2CO2)cc1 the TGI was > 100 µM. COc1cc2cc(OC)c3cc4c(cc3c2c(OC)c1OC)OCO4 was tested, and the TGI was > 84.4 µM. For O=C(CC(=O)c1cccc2ccccc12)C(=O)Nc1ccc(Cl)cc1, the TGI was > 100 µM. With C=CCO[C@H]1CO[C@H]2[C@@H]1OC[C@@H]2Oc1ccc(Nc2ccnc(Nc3ccc(O[C@H]4CO[C@H]5[C@@H]4OC[C@@H]5OCC=C)c(Cl)c3)n2)cc1Cl the GI50 was 1.86 µM and the TGI was 3.63 µM. CCCCCCCCCCCCCC(=O)OC(/C=C/C(C)C)C(O)C(O)C(OC)C(=O)NC1CCCCN(C)C1=O (configuration not stated) was tested, and the GI50 was > 49 µM and the TGI was 32.5 µM and > 49 µM. For CC1(C(=O)O)CCC[C@@]2(C)C1CC[C@@]1(C)c3cocc3CCC21 (some centres not stated), the TGI was > 100 µM. CCn1c(C)nn2c(=O)c3ccccc3nc2c1=O was tested, and the TGI was > 100 µM. CCOC(=O)CCC1(C(=O)OCC)CCCCC1=O (configuration not stated) was tested, and the TGI was > 100 µM. In the case of CCN(CC)CCSc1c2ccccc2nc2cc(NCC(=O)Nc3ccccc3-c3ccccc3NC(=O)CNc3ccc4c(SCCN(CC)CC)c5ccccc5nc4c3)ccc12, the TGI is reported as > 100 µM. For Cc1nc2c(ccc3ncccc32)[nH]1, the TGI was > 100 µM. In the case of O=C(CCNC12CC3CC(CC(C3)C1)C2)c1ccccc1, the TGI is reported as 39.6 µM. Cc1ccsc1C(=S)Nc1ccc(Cl)c(/C=N/OC(C)(C)C)c1 was tested, and the TGI was 41.1 µM. In the case of Cc1cc(N(CCC#N)CCC#N)ccc1N=Nc1ccc(S(N)(=O)=O)cc1, the TGI is reported as > 100 µM. In the case of CC(=O)[CH-]C(=O)c1ccccc1.CC(=O)[CH-]C(=O)c1ccccc1.CN(C)c1ccc([O-])cc1.CN(C)c1ccc([O-])cc1.Cl.[Ti+4], the GI50 is reported as 71.6 µM and the TGI is reported as > 100 µM. In the case of CC1(C)C(=O)/C=C\C(=O)C(C)(C)C2=CC=C(O2)C(C)(C)C(=O)/C=C\C(=O)C(C)(C)C2=CC=C1O2, the TGI is reported as > 100 µM. In the case of NC(=O)NO.O.O.O.O.O.O.O.O.O.O.O.[Ge].[Ge].[Ge].[Ge].[Ge].[O]=[Ge].[O]=[Ge].[O]=[Ge].[O]=[Ge].[O]=[Ge][OH], the TGI is reported as > 100 µM. In the case of CN(C)C(=S)N=C(Nc1ccccc1)Nc1ccccc1, the TGI is reported as > 100 µM. In the case of COC(=O)CC[N+]1=CCC(c2ccccc2)(c2ccccc2)O1, the TGI is reported as > 100 µM. In the case of CCC[CH2][Sn]([CH2]CCC)([S]c1cccc2cccnc12)[S]c1cccc2cccnc12, the GI50 is reported as 0.249 µM and the TGI is reported as 0.552 µM. In the case of OCC1=CC(NC2CC(CO)C(O)C(O)C2O)C(O)C(O)C1O (configuration not stated), the TGI is reported as > 100 µM. With Nc1ccccc1S(=O)(=O)N(CC(=O)O)c1ccccc1 the TGI was > 100 µM. In the case of CCOC(=O)C(C)(C)Oc1ccc2c(-c3ccccc3)cc(=O)oc2c1, the TGI is reported as > 100 µM. For CNS(=O)(=O)NNS(=O)(=O)c1ccccc1, the TGI was > 100 µM. Cc1cc(NS(=O)(=O)c2ccc(Nc3c4ccccc4nc4c(C(=O)N5CCN(CCOS(C)(=O)=O)CC5)cccc34)cc2)no1 was tested, and the TGI was > 100 µM. For O=C(O)CCC(NC(=O)c1ccc(Nc2nc3ccccc3nc2-c2cccs2)cc1)C(=O)O (configuration not stated), the TGI was > 100 µM. NC1=NCCC1(c1ccccc1)c1ccccn1 (configuration not stated) was tested, and the TGI was > 100 µM. For CC1CCc2nc[nH]c(=O)c21 (configuration not stated), the GI50 was > 100 µM and the TGI was > 100 µM. Work on CNC(=S)OCCC(C)CCCC(C)C (configuration not stated) yielded a TGI of 25.5 µM. COC(=O)/C(C#N)=C1\NC(=O)c2ccccc21 was tested, and the TGI was > 100 µM.

The compounds below were run on HCC-2998 colon (assay: NCI-60 cell line screen, 48 h).
In the case of COc1cc2c(c3oc4c(O)cccc4c(=O)c13)CC(C(C)(O)CO)O2 (configuration not stated), the TGI is reported as > 100 µM. For CC(=O)OC1OC([C@@H]2c3cccc(O)c3C(=O)c3c(O)cc(C)cc32)C(O)C(O)C1O (some centres not stated), the GI50 was < 0.01 µM. In the case of Cc1c(C(=O)C/C(=N/NC(=O)c2ccccc2O)C(=O)Nc2ccccc2C(C)C)[n+](=O)c2ccccc2n1[O-], the TGI is reported as > 100 µM. With CCCCCCCCCCCC(=O)OCCOCCOCCOCCOCCOCc1ccccc1 the TGI was > 100 µM. CCCC1C(=O)CCc2c(OC)ccc(OC)c21 (configuration not stated) was tested, and the TGI was > 100 µM. O=C(CCc1nc(=S)[nH][nH]1)Nc1cc(Cl)c(Cl)cc1Cl was tested, and the TGI was > 100 µM. In the case of CN1CCCCC1CCN1c2ccccc2Sc2ccc(Cl)cc21 (configuration not stated), the GI50 is reported as 2.5 µM and the TGI is reported as 5.85 µM. In the case of O=C(Nc1nc2ccc([N+](=O)[O-])cc2s1)C(=O)C(C1OC(=O)c2ccccc21)[N+](=O)[O-] (configuration not stated), the TGI is reported as > 100 µM. In the case of COC(=O)C1(C(C)C)CCc2c(OC)ccc(OC)c2C1=O (configuration not stated), the TGI is reported as > 100 µM. FC(F)(F)c1cccc(Nc2nc(-c3ccccc3)nc3ncccc23)c1 was tested, and the GI50 was 4.91 µM and the TGI was 30.2 µM. For COC(=O)c1ccccc1NC(=O)C(=O)Cc1nc2c3c(ccc2[nH]c1=O)C(=O)c1ccccc1C3=O, the TGI was 43 µM. In the case of Cc1ccc(S(=O)(=O)OC[C@@H]2CO2)cc1, the TGI is reported as > 100 µM. Work on COc1cc2cc(OC)c3cc4c(cc3c2c(OC)c1OC)OCO4 yielded a TGI of 25.8 µM. With O=C(CC(=O)c1cccc2ccccc12)C(=O)Nc1ccc(Cl)cc1 the TGI was > 100 µM. C=CCO[C@H]1CO[C@H]2[C@@H]1OC[C@@H]2Oc1ccc(Nc2ccnc(Nc3ccc(O[C@H]4CO[C@H]5[C@@H]4OC[C@@H]5OCC=C)c(Cl)c3)n2)cc1Cl gave a GI50 of 1.94 µM and a TGI of 3.43 µM. In the case of CCCCCCCCCCCCCC(=O)OC(/C=C/C(C)C)C(O)C(O)C(OC)C(=O)NC1CCCCN(C)C1=O (configuration not stated), the TGI is reported as 5.54 µM and > 49 µM. In the case of CC1(C(=O)O)CCC[C@@]2(C)C1CC[C@@]1(C)c3cocc3CCC21 (some centres not stated), the TGI is reported as > 100 µM. For CCn1c(C)nn2c(=O)c3ccccc3nc2c1=O, the TGI was > 100 µM. For CCOC(=O)CCC1(C(=O)OCC)CCCCC1=O (configuration not stated), the TGI was > 100 µM. CCN(CC)CCSc1c2ccccc2nc2cc(NCC(=O)Nc3ccccc3-c3ccccc3NC(=O)CNc3ccc4c(SCCN(CC)CC)c5ccccc5nc4c3)ccc12 was tested, and the TGI was > 100 µM.
